Assay results published in publication PMC11345766, “Computational Design of Pore-Forming Peptides with Potent Antimicrobial and Anticancer Activities” (Journal of Medicinal Chemistry, 2024).
pIC50: −log10 of the molar value. Where two headings read alike, the source gives them in different places. Ends that are not written are not given here.

How the values were obtained:
[1] = Calcein dye leakage assay from LUVs; assay type: biochemical; conditions: for Calcein leakage (%) from LUVs at P:L 1:100 (mol/mol): pH 7.4; for Calcein leakage: even at a higher P:L ratio of 1:10
Description: To verify the pore-forming mechanism of action of the designed AMPs, we performed a calcein leakage assay. […] These lipid vesicles were used as simple mimics of bacterial membranes.[58] At the lowest tested peptide-to-lipid (P:L) ratio of 1:100 (mol/mol), three mutants (LP18, LP26, and LP40) caused >90% leakage, which was higher than the leakage caused by LP1 (87%). […] At the same concentration, LP23 caused leakage equivalent to that caused by LP1. Other mutants had lower leakage activity. At a higher P:L ratio of 1:50, all the abovementioned mutants caused 100% leakage, equivalent to that caused by LP1.
Pore-forming activity was tested using a dye leakage assay measuring the leakage of self-quenching fluorescent dye calcein from POPC:POPG (1:1 mol/mol) LUVs. DiD was mixed with lipids (1:500 mol/mol), and lipid film was created by evaporating chloroform, followed by 4 h of desiccation. Dried lipid film was dissolved in calcein buffer (35 mM calcein, 25 mM NaH2PO4·H2O and Na2HPO4·7H2O (3:7 mol/mol), 20 mM NaCl, and 1 mM EDTA). After 10 freeze–thaw cycles, the sample was extruded 50 times through a 100 nm pore size polycarbonate membrane filter. Free calcein in solution was removed using a HiTrap Desalting column. The concentrations of LUVs and peptides were adjusted to 0.02 and 0.1 mM, respectively, in PBS (25 mM NaH2PO4·H2O and Na2HPO4·7H2O (3:7 mol/mol), 100 mM NaCl, and 1 mM EDTA). The investigated P/L ratio was from 1:100 to 1:10 (mol/mol). Fluorescence intensity was measured using a HORIBA Scientific Jobin Yvon FluoroLog-3 Modular Spectrofluorometer (USA). Excitation and emission wavelengths were set to 495 and 520 nm, respectively. Triton X-100 10% caused 100% leakage used for normalization.

E. coli (TOP10) = assay: Broth microdilution antimicrobial susceptibility assay; assay type: cell-based, Escherichia coli
Description: (§1) To test antimicrobial activity, all peptides were initially screened, in a broth microdilution assay, against Gram-negative Escherichia coli (TOP10) and Gram-positive Staphylococcus carnosus (CCM 4838T) Biosafety Level 1 (BSL-1) bacteria (Table 2). […] Four other mutants (LP3, LP26, LP36, and LP39) had higher activity than LP1 against E. coli, and two mutants (LP23 and LP32) had higher activity than LP1 against S. carnosus. Six mutants (LP29, LP30, LP31, LP33, LP40, and LP43) were not active against one or both bacteria, even at the highest concentration tested (50 μM).
(§2) Antimicrobial activity against E. coli TOP10 and S. carnosus CCM 4838T was tested using the broth microdilution assay. Bacteria were cultured in MHA Petri dish for 24 h, subcultured in an MHB test tube for 6 h at 37 °C, and diluted to 10^6 CFU/mL (OD600). […] Dilution series was prepared for concentrations 50 to 0.1 μM in a flat-bottom 96-well plate, inoculated with bacteria, and incubated for 24 h at 37 °C. Growth control wells were free from test compounds, and sterility control wells were free from bacteria. Bacterial MIC was determined as the lowest concentration of test compounds that inhibited visible growth of bacteria (i.e., no visible turbidity).

S. carnosus (CCM 4838T) = assay: microbe, parasite or virus in culture; assay type: cell-based, Staphylococcus carnosus; conditions: CCM 4838, 24 h; read-out: Antimicrobial activity (MIC) S. carnosus (CCM 4838T)
Description: as §1, §2

[2] = tested on: human red blood cells (HRBCs); conditions: read-out: Hemolysis toxicity (IC50); 1 h incubation
Description: To investigate the toxicity for normal human cells, all peptides were first screened against human red blood cells (HRBCs) using a hemolysis assay (Table 2 and Figure S4).
Hemolysis toxicity was tested against HRBCs. Blood samples, collected from the university hospital, were centrifuged twice at 700 × g and once at 1000 × g for 8 min at 4 °C to obtain erythrocyte pellets. Supernatants were always discarded, and pellets were resuspended in PBS (the same as the antimicrobial susceptibility assay). The final RBC suspension was 0.5% (v/v). Dilution series was prepared for concentrations 50 to 0.1 μM in a V-bottom 96-well plate, followed by the addition of RBC suspension. […] After 1 h of incubation at 37 °C, the well plate was centrifuged at 1000 × g for 10 min at 4 °C. The supernatant, collected in a flat-bottom well plate, was measured for OD415 using Tecan Microplate Reader Infinite F500.

[3] = Description: (§3) Cytotoxicity against human immortalized keratinocytes HaCaT, human alveolar basal epithelial A549 (derived from adenocarcinoma), and murine macrophages RAW 264.7 was tested using MTT [3-(4,5-dimethylthiazol-2-yl)-2,5-diphenyltetrazolium bromide] assay. Cells were cultured in Dulbecco’s modified Eagle’s medium (DMEM) containing 4 mM glutamine for HaCaT, or 2 mM glutamine for A549 and RAW 264.7 cells, supplemented with 10% heat-inactivated fetal bovine serum (FBS) and antibiotics (0.1 mg/mL penicillin and streptomycin). Nonessential amino acids (NEAA) and sodium pyruvate (1 mM) were added for macrophages. Cell lines were grown in 25 and 75 cm^2 flasks at 37 °C in a humidified atmosphere with 5% CO2. Cells were suspended in DMEM, containing glutamine, NEAA, and sodium pyruvate (as described above), supplemented with 2% FBS, plated in 96-well plates at 4 × 10^4 cells/well, and incubated at 37 °C in a 5% CO2 atmosphere. After overnight incubation, the medium was replaced with fresh DMEM supplemented with peptides at different concentrations: 2, 4, 8, 16, 32, 64, and 128 μM. Negative controls were cells without peptides. After 24 h of peptide treatment at 37 °C in a 5% CO2 atmosphere, medium was replaced with Hank’s buffer (136 mM NaCl, 0.34 mM Na2HPO4, 0.44 mM KH2PO4, 5.4 mM KCl, 4.1 mM NaHCO3, supplemented with 5.5 mM D-glucose) containing 0.5 mg/mL MTT. Mitochondrial dehydrogenases converted soluble yellow dye MTT to insoluble purple formazan. After 4 h of incubation, acidified isopropanol was added to dissolve formazan crystals and measured for OD570 using Tecan microplate reader Infinite M200 (Salzburg, Austria).
[4] = remark: listed apart in the source
Description: as §3

MIC (E. coli (TOP10); 24 h, MHB)	Substance	Calcein leakage (%) from LUVs at P:L 1:100 (mol/mol) [1]	MIC (S. carnosus (CCM 4838T))	Calcein leakage [1]	MIC (E. coli (TOP10); TOP10, 24 h)	pIC50 [2]	pIC50 [3]	pIC50 [4]
0.4 µM	RRRRLKKILKKLFQFINQLDNQLQDIRQNR-NH2 [LP39]	65.5 ± 4.2%	0.8 µM					
	KKKKAKKAAKKAFQFANQADNQAQDAKQNK-NH2 [LP29]	0%	> 50 µM	did not cause any leakage	> 50 µM	< 4.30		
	Ac-KKKKLKKILKKLFQFINQLDNQLQDIKQNK-NH2 [LP23]	83.3 ± 5.4%	0.4 µM		6.3 µM	< 4.30		
0.2 µM	H-KKKKLKKILKKLFQFINQLDNQLQDIKQNK-OH [LP22]	68.0 ± 1.7%	0.4 µM					
	KKKKLKKILKKLFNFINNLDNNLNDIKNNK-NH2 [LP37]	70.3 ± 1.7%	0.4 µM		0.2 µM	< 4.30		
0.4 µM	KKKKLKKILKKLWQWINQLDNQLQDIKQNK-NH2 [LP3]	29.6 ± 1.2%	0.8 µM					
0.4 µM	H-KKKKLKKILKKLFQFINQLDNQLQDFKQNK-OH [LP26]	91.6 ± 2.8%	0.8 µM					
1.6 µM	KKKKLKKILKKLFQFIDQLINDLQNIKKKK-NH2 [LP20]	38.6 ± 3.5%	1.6 µM					
	KNQNLDDILNQLFQFINQLKNQLQKIKKKK-NH2 [LP43]	64.2 ± 4.6%	0.8 µM		> 50 µM	< 4.30		
	KKKKLKKLLKKLFQFLNQLDNQLQDLKQNK-NH2 [LP32]	56.3 ± 3.3%	0.4 µM		1.6 µM	< 4.30	> 5.70	
0.8 µM	KKKKLKKILKKLFQFINQLENQLQEIKQNK-NH2 [LP8]	29.2 ± 4.9%	0.8 µM					
	KKKKLKKILKKLFTFITTLDTTLTDIKTTK-NH2 [LP34]	79.3 ± 2.4%	0.8 µM		0.8 µM	< 4.30		
	KKKKMKKMMKKMFQFMNQMDNQMQDMKQNK-NH2 [LP30]	21.9 ± 2.5%	12.5 µM		> 50 µM	< 4.30		
0.2 µM	KKKKLRRILRRLFQFINQLDNQLQDIKQNK-NH2 [LP38]	76.0 ± 3.3%	0.4 µM					
	KKKKLKKILKKLFSFISSLDSSLSDIKSSK-NH2 [LP36]	71.5 ± 7.4%	0.8 µM		0.4 µM	< 4.30		
	KKKKLKKILKKLIQLINQLDNQLQDIKQNK-NH2 [LP2]	24.2 ± 2.6%	1.6 µM		6.3 µM	< 4.30		
	KKKKVKKVVKKVFQFVNQVDNQVQDVKQNK-NH2 [LP31]	0%	> 50 µM	≤ 20%	> 50 µM	< 4.30		< 3.89
